Read-outs that look alike come from different tables or passages of the source.

For one test, the target named is T1, Wee1 kinase domain (Homo sapiens, UniProt P30291).
T1 construct: Wee1 kinase domain was purchased from Carna (catalog #05-177); purchased Carna 05-177
Kind of test: Wee1 Kinase Biochemical Assay (ADP-Glo). As to conditions: 15 uM ATP. Put shortly:
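ADP-Glo detection of ADP produced after 4 h at 25° C by 1 nM Wee1 kinase domain on 2 ng/mL poly(Lys,Tyr 4:1) with 15 uM ATP. Buffer: 40 mM Tris-HCl, 20 mM MgCl2, 0.1 mg/mL BSA, 2 mM DTT. Inhibition is relative to DMSO (high) and saturating Wee1 inhibitor (low) controls.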

Test [1] has as its system phosphorylation of Cdc2 Y15 (Wee1 substrate) in A427 cells. As to the kind of experiment: Phosphorylated Cdc2 MSD Electrochemiluminescence Assay. Format: cell-based. As to conditions: Homo sapiens. The method, boiled down:
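Read-out: percent residual phospho-Cdc2 Y15 relative to DMSO and positive-control Wee1 inhibitor, measured by MSD electrochemiluminescence capture/detection antibody assay in cell lysates. A427 cells received duplicate 3-fold compound dilution series 20 h post-seeding, with 6 h total incubation at 37 °C.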

Where [2] appears, read: class symbols, 1 nM Wee1 enzyme, 4 hours at 25° C.
Where [3] appears, read: A-427, class symbols, read-out: A427 pCDC2 MSD IC50.

T1 sequence (P30291 299-569 limits assumed): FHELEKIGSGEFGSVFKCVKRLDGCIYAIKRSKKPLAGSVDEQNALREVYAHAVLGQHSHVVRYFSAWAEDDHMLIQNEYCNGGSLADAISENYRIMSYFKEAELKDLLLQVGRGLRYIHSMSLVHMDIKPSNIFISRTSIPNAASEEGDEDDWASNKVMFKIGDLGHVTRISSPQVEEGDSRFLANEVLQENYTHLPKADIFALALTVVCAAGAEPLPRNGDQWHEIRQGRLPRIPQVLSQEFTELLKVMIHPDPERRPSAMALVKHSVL

What is called IC50 is the concentration that inhibits the measured activity by half. As to `CC1(C)C[C@H]2N(c3cccc(N4CCOC4=O)n3)c3nc(Nc4ccc([C@H]5CNC[C@H]5F)cc4)ncc3[C@@]2(C)CO1` [Example 672, 3-(6-((4bR,8aR)-2-((4-((3S,4S)-4-fluoropyrrolidin-3-yl)phenyl)amino)-4b,7,7-trimethyl-4b,7,8,8a-tetrahydropyrano[3′,4′:4,5]pyrrolo[2,3-d]pyrimidin-9(5H)-yl)pyridin-2-yl)oxazolidin-2-one], the IC50 against Wee1 kinase domain (setting [2]) is below 0.01 µM; in test [1] (setting [3]) it was 0.1 to 1 µM.

Regarding `CN[C@@H](C)c1cccc(N2c3nc(Nc4ccc(N5C[C@@H]6C[C@H]5CO6)cc4)ncc3[C@@]3(C)COC(C)(C)C[C@@H]23)n1` (single isomer, unassigned) [Example 581], the IC50 against Wee1 kinase domain (setting [2]) is below 0.01 µM; in test [1] (setting [3]), 0.1 to 1 µM.

As to `CC1(C)C[C@H]2N(c3cccc(N=S(C)(C)=O)n3)c3nc(Nc4cn(C5COC5)cn4)ncc3[C@@]2(C)CO1` (single isomer, unassigned) [Example 232], the half-maximal inhibitory concentration (IC50) against Wee1 kinase domain (Wee1 kinase domain, ADP-Glo) was below 0.01 µM; in test [1] (A-427, pCDC2 MSD) it was 1 to 10 µM.

On to `CNCc1cccc(N2c3nc(Nc4cnn(C)c4)ncc3[C@@]3(C)COC(C)(C)C[C@@H]23)n1` (single isomer, unassigned) [Example 472], for which the figures for the IC50 (at Wee1 kinase domain (setting [2]); in test [1] (setting [3])) were below 0.01 µM and 0.1 to 1 µM, respectively.

Take `CN=[S@@](C)(=O)c1cccc(N2c3nc(Nc4ccc(C5CCN(C)CC5)cc4)ncc3[C@@]3(C)COC(C)(C)C[C@@H]23)n1` (single isomer, unassigned) [Example 752]: the values for the concentration for half-maximal inhibition (IC50) (against Wee1 kinase domain (setting [2]); in test [1] (setting [3])) were below 0.01 µM and 0.1 to 1 µM, respectively.

For the compound `Cn1cc(Nc2ncc3c(n2)N(c2cccc(N=S(C)(C)=O)n2)[C@@H]2CC(C)(C)OC[C@]32C)cn1` (single isomer, unassigned) [Example 484], the IC50 against Wee1 kinase domain (setting [2]) is below 0.01 µM; in test [1] (setting [3]) it was below 0.1 µM.

Turning to `CN1CCC(c2ccc(Nc3ncc4c(n3)N(c3cccc(N=S(C)(C)=O)c3)[C@@H]3CC(C)(C)OC[C@]43C)cn2)CC1` [Example 710, dimethyl((3-((4bR,8aR)-4b,7,7-trimethyl-2-((6-(1-methylpiperidin-4-yl)pyridin-3-yl)amino)-4b,7,8,8a-tetrahydropyrano[3′,4′:4,5]pyrrolo[2,3-d]pyrimidin-9(5H)-yl)phenyl)imino)-16-sulfanone], the IC50 on Wee1 kinase domain (setting [2]) was below 0.01 µM; in test [1] (setting [3]), 1 to 10 µM.

`Cn1ncc(Nc2ncc3c(n2)N(c2cccc(N=S(C)(C)=O)n2)[C@@H]2CC(C)(C)OC[C@]32C)c1F` (single isomer, unassigned) [Example 490]: the results for the IC50 (against Wee1 kinase domain (setting [2]); in test [1] (setting [3])) were below 0.01 µM and 0.1 to 1 µM, respectively.

As to `C[C@H]1CCC(=O)N1c1cccc(N2c3nc(Nc4ccc(C5CN(C)C5)cc4)ncc3[C@@]3(C)COC(C)(C)C[C@@H]23)n1` (single isomer, unassigned) [Example 727], the figures for the IC50 (on Wee1 kinase domain (setting [2]); in test [1] (setting [3])) were below 0.01 µM and below 0.1 µM, respectively.

For `Cc1cc(Nc2ncc3c(n2)N(c2cccc(C(=O)N(C)C)n2)[C@@H]2CC(C)(C)OC[C@]32C)ccc1C1CCN(C)CC1` (single isomer, unassigned) [Example 585], the half-inhibitory concentration (IC50) is below 0.01 µM on Wee1 kinase domain (setting [2]) and 0.1 to 1 µM in test [1] (setting [3]).

Turning to `CC1(C)C[C@H]2N(c3cccc(N=S(C)(C)=O)n3)c3nc(NC(=O)OC4CCOCC4)ncc3[C@@]2(C)CO1` (single isomer, unassigned) [Example 772], the IC50 against Wee1 kinase domain (setting [2]) was below 0.01 µM; in test [1] (setting [3]), 0.1 to 1 µM.

As for `CN1C[C@H]2C[C@@H]1CN2c1ccc(Nc2ncc3c(n2)N(c2cccc(C(C)(C)O)n2)[C@@H]2CC(C)(C)OC[C@]32C)cc1F` (single isomer, unassigned) [Example 427], the IC50 is below 0.01 µM against Wee1 kinase domain (setting [2]) and 0.1 to 1 µM in test [1] (setting [3]).

In the case of `CN1C[C@@H]2C[C@H]1CN2c1ccc(Nc2ncc3c(n2)N(c2ccn(C)n2)[C@@H]2CC(C)(C)OC[C@]32C)cc1` (single isomer, unassigned) [Example 519], the half-maximal inhibitory concentration (IC50) against Wee1 kinase domain (setting [2]) is below 0.01 µM; in test [1] (setting [3]), 0.1 to 1 µM.

As to `CNCc1cccc(N2c3nc(Nc4ccc([C@H]5CC(=O)N(C)C5)cc4)ncc3[C@@]3(C)COC(C)(C)C[C@@H]23)n1` (single isomer, unassigned) [Example 68], the IC50 against Wee1 kinase domain (Wee1 kinase domain, ADP-Glo) was below 0.01 µM; in test [1] (A-427, pCDC2 MSD), 0.1 to 1 µM.

For the origin of these results see patent US20260166039A1 (SCHRÖDINGER, INC., priority 2022, published 2026).
